# Assay results taken from patent US4275057A (The United States of America as represented by the …, priority 1980, dated 1981).
# Experiments:
# adenosine deaminase = settings: qualitative statement; cited from earlier work
# [1] = target: T1, Mouse kidney cytidine deaminase (Mus musculus, UniProt P56389); assay: Cytidine deaminase inhibition, mouse kidney enzyme; format: biochemical
# T1 construct: isolated and partially purified from mouse kidney acetone powder; tissue Sigma Chemical Co; host or cells: mouse kidney (acetone powder, buffer extract, ammonium sulfate fractionation)
# [2] = target: T2, Cytidine deaminase from human liver (Homo sapiens, UniProt P32320); assay: Cytidine deaminase inhibition, human liver enzyme; format: biochemical
# T2 construct: Cytidine deaminase from human liver was isolated; from tissue; host or cells: human liver
# T2 sequence (P32320 whole entry): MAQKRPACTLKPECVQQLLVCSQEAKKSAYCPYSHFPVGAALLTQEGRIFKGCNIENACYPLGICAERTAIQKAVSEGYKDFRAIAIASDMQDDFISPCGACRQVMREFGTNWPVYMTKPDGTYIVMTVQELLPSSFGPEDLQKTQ
# T1 sequence (P56389 whole entry): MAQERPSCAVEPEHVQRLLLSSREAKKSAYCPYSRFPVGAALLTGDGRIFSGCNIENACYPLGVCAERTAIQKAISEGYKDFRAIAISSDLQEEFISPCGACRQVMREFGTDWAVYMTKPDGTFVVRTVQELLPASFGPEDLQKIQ
structure (smiles),measurement,setting,value
OC[C@H]1O[C@@H](n2cnc3c2N=CNC[C@H]3O)C[C@@H]1O [2'-deoxycoformycin],inhibition of adenosine deaminase (in words),adenosine deaminase,very potent adenosine deaminase inhibitor
"O=C1NCCCCN1C1C[C@H](O)[C@@H](CO)O1 (stereo partly drawn) [Compound 3d, 1-(2-deoxy-D-erythro-pentofuranosyl)-perhydro-1,3-diazepin-2-one]",Ki,[1],0.2 µM
"O=C1CCNC(=O)N([C@@H]2O[C@H](CO)[C@@H](O)[C@H]2O)C1 [Compound 8b, 3-(β-D-Ribofuranosyl)-5-keto-perhydro-1,3-diazepin-2-one]",Ki,[1],10 µM
same,Ki,[2],10 µM
